Measured values published in the supplement of paper PMC10733146.

Columns and labels:
Test in all cases: viability relative to DMSO control (fraction); higher = less drug effect (more viable cells)
Details in all cases: 48 h
[1] = tested on: primary ALL patient cells (S048)
Method in brief: (§1)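 Compounds were pre-plated at five concentrations, one well each, in 384-well plates, and primary mononuclear tumour cells were plated on them at 4 × 10^4 cells per well. The cells, fresh or cryopreserved, had been Ficoll-isolated from blood or bone marrow or taken from processed lymph node. After 48 h at 37 °C and 5% CO2 in RPMI-1640 with penicillin/streptomycin, L-glutamine and human serum, viability was read as CellTiter-Glo luminescence relative to the median of 16 inner DMSO wells.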

[2] = tested on: primary ALL patient cells (S088)
Method in brief: as §1

[3] = tested on: primary AML patient cells (S006)
Method in brief: as §1

[4] = tested on: primary AML patient cells (S007)
Method in brief: as §1

[5] = tested on: primary AML patient cells (S011)
Method in brief: as §1

[6] = tested on: primary AML patient cells (S012)
Method in brief: as §1

[7] = tested on: primary AML patient cells (S019)
Method in brief: as §1

[8] = tested on: primary AML patient cells (S056)
Method in brief: as §1

[9] = tested on: primary AML patient cells (S079)
Method in brief: as §1

[10] = tested on: primary AML patient cells (S085)
Method in brief: as §1

[11] = tested on: primary CLL patient cells (S031)
Method in brief: as §1

[12] = tested on: primary FL patient cells (S022)
Method in brief: as §1

[13] = tested on: primary FL patient cells (S087)
Method in brief: as §1

[14] = tested on: primary MCL patient cells (S041)
Method in brief: as §1

[15] = tested on: primary MCL patient cells (S063)
Method in brief: as §1

Q: `O=C(O)CSc1cc(NS(=O)(=O)c2ccc(Br)cc2)c2ccccc2c1O` [UMI-77] was tested. Which viability ([1]; 0.024 µM) did it give?
A: 0.913

Q: And the viability ([1]; 0.12 µM)?
A: 0.88

Q: What about the viability ([1]; 0.6 µM) of the same molecule?
A: 0.742

Q: And the viability ([1]; 3 µM)?
A: 0.582

Q: What about the viability ([1]; 15 µM) of the same molecule?
A: 0.128

Q: And the viability ([2]; 0.024 µM)?
A: 0.244

Q: What about the viability ([2]; 0.12 µM) of the same molecule?
A: 0.291

Q: And the viability ([2]; 0.6 µM)?
A: 0.291

Q: And the viability ([2]; 3 µM)?
A: 0.316

Q: What about the viability ([2]; 15 µM) of the same molecule?
A: 0.158

Q: What about the viability ([3]; 0.024 µM) of the same molecule?
A: 1.07

Q: What about the viability ([3]; 0.12 µM) of the same molecule?
A: 1.04

Q: What about the viability ([3]; 0.6 µM) of the same molecule?
A: 0.979

Q: What about the viability ([3]; 3 µM) of the same molecule?
A: 1.01

Q: What about the viability ([3]; 15 µM) of the same molecule?
A: 0.467

Q: And the viability ([4]; 0.024 µM)?
A: 0.894

Q: And the viability ([4]; 0.12 µM)?
A: 0.94

Q: What about the viability ([4]; 0.6 µM) of the same molecule?
A: 0.853

Q: And the viability ([4]; 3 µM)?
A: 0.973

Q: And the viability ([4]; 15 µM)?
A: 0.891

Q: And the viability ([5]; 0.024 µM)?
A: 0.457

Q: What about the viability ([5]; 0.12 µM) of the same molecule?
A: 0.654

Q: What about the viability ([5]; 0.6 µM) of the same molecule?
A: 0.618

Q: What about the viability ([5]; 3 µM) of the same molecule?
A: 0.47

Q: What about the viability ([5]; 15 µM) of the same molecule?
A: 0.227

Q: And the viability ([6]; 0.024 µM)?
A: 1.07

Q: What about the viability ([6]; 0.12 µM) of the same molecule?
A: 1.06

Q: What about the viability ([6]; 0.6 µM) of the same molecule?
A: 1.09

Q: And the viability ([6]; 3 µM)?
A: 1.04

Q: What about the viability ([6]; 15 µM) of the same molecule?
A: 0.715

Q: And the viability ([7]; 0.024 µM)?
A: 1.28

Q: And the viability ([7]; 0.12 µM)?
A: 1.35

Q: What about the viability ([7]; 0.6 µM) of the same molecule?
A: 1.17

Q: And the viability ([7]; 3 µM)?
A: 1.24

Q: What about the viability ([7]; 15 µM) of the same molecule?
A: 0.831

Q: And the viability ([8]; 0.024 µM)?
A: 0.838

Q: And the viability ([8]; 0.12 µM)?
A: 0.998

Q: And the viability ([8]; 0.6 µM)?
A: 0.836

Q: What about the viability ([8]; 3 µM) of the same molecule?
A: 0.999

Q: What about the viability ([8]; 15 µM) of the same molecule?
A: 0.434

Q: And the viability ([9]; 0.024 µM)?
A: 0.917

Q: And the viability ([9]; 0.12 µM)?
A: 0.932

Q: And the viability ([9]; 0.6 µM)?
A: 0.997

Q: What about the viability ([9]; 3 µM) of the same molecule?
A: 0.989

Q: What about the viability ([9]; 15 µM) of the same molecule?
A: 0.79

Q: What about the viability ([10]; 0.024 µM) of the same molecule?
A: 0.887

Q: What about the viability ([10]; 0.12 µM) of the same molecule?
A: 1.07

Q: And the viability ([10]; 0.6 µM)?
A: 0.905

Q: What about the viability ([10]; 3 µM) of the same molecule?
A: 0.834

Q: What about the viability ([10]; 15 µM) of the same molecule?
A: 1.53

Q: What about the viability ([11]; 0.024 µM) of the same molecule?
A: 0.84

Q: And the viability ([11]; 0.12 µM)?
A: 0.875

Q: And the viability ([11]; 0.6 µM)?
A: 0.886

Q: What about the viability ([11]; 3 µM) of the same molecule?
A: 0.878

Q: What about the viability ([11]; 15 µM) of the same molecule?
A: 0.73

Q: And the viability ([12]; 0.024 µM)?
A: 0.967

Q: What about the viability ([12]; 0.12 µM) of the same molecule?
A: 0.981

Q: What about the viability ([12]; 0.6 µM) of the same molecule?
A: 0.913

Q: What about the viability ([12]; 3 µM) of the same molecule?
A: 0.897

Q: And the viability ([12]; 15 µM)?
A: 0.521

Q: What about the viability ([13]; 0.024 µM) of the same molecule?
A: 0.936

Q: And the viability ([13]; 0.12 µM)?
A: 0.937

Q: What about the viability ([13]; 0.6 µM) of the same molecule?
A: 0.923

Q: What about the viability ([13]; 3 µM) of the same molecule?
A: 0.876

Q: And the viability ([13]; 15 µM)?
A: 0.256

Q: What about the viability ([14]; 0.024 µM) of the same molecule?
A: 0.968

Q: What about the viability ([14]; 0.12 µM) of the same molecule?
A: 0.986

Q: And the viability ([14]; 0.6 µM)?
A: 0.955

Q: What about the viability ([14]; 3 µM) of the same molecule?
A: 0.929

Q: And the viability ([14]; 15 µM)?
A: 0.331

Q: And the viability ([15]; 0.024 µM)?
A: 1.06

Q: And the viability ([15]; 0.12 µM)?
A: 1.05

Q: What about the viability ([15]; 0.6 µM) of the same molecule?
A: 0.974

Q: And the viability ([15]; 3 µM)?
A: 0.963

Q: And the viability ([15]; 15 µM)?
A: 0.701
